Test results reported in the SangsterLogP compilation.

For O=Cc1ccc2ccc3cccc4ccc1c2c34, the logP was 4.23.
With NC(=O)c1c2ccccc2cc2ccccc12 the logP was 2.23.
For Brc1ccc2ccc3ccc(Br)c4ccc1c2c34, the logP was 6.73.
CC(=O)c1cc2ccc3cccc4ccc(c1)c2c34 showed a logP of 4.29.
Work on Clc1c2ccccc2cc2ccccc12 yielded a logP of 5.27.
With O=C1c2ccccc2C(=O)c2ccccc21 the logP was 3.28.
Compound Brc1cc2ccc3cccc4ccc(c1)c2c34 has a logP of 5.8.
Compound O=Cc1c2ccccc2cc2ccccc12 has a logP of 3.77.
Compound Brc1ccc2ccc3c(Br)ccc4ccc1c2c43 has a logP of 6.69.
With Brc1cc(Br)c2ccc3cccc4ccc1c2c43 the logP was 6.85.
Work on N#Cc1c2ccccc2cc2ccccc12 yielded a logP of 3.98.
Compound COC(=O)c1c2ccccc2cc2ccccc12 has a logP of 3.83.
COC(=O)c1cc2ccc3cccc4ccc(c1)c2c34 showed a logP of 4.85.
CC(=O)c1cc2cccc3ccc4cccc1c4c32 showed a logP of 4.16.
Compound COc1c2ccccc2cc2ccccc12 has a logP of 4.36.
With CC(=O)c1c2ccccc2cc2ccccc12 the logP was 3.6.
Brc1cc2cccc3ccc4cccc1c4c32 gave a logP of 5.84.
With COC(=O)c1ccc2ccc3cccc4ccc1c2c34 the logP was 4.73.
In the case of Brc1c2ccccc2cc2ccccc12, the logP is reported as 5.37.
For CC(=O)c1ccc2ccc3cccc4ccc1c2c34, the logP was 4.18.
Brc1c2ccccc2c(Br)c2ccccc12 gave a logP of 6.29.
Brc1ccc2ccc3cccc4ccc1c2c34 gave a logP of 5.81.
